What is called IC50 is the midpoint of a concentration-inhibition curve.

This is an account of results in patent US11945822B2, “Pyrazolo-triazine and/or pyrazolo-pxrimidine derivatives as selective inhibitor of cyclin dependent kinase” (QURIENT CO., LTD., priority 2018, dated 2024).

Some results are limits rather than exact numbers.

One assay addresses T1, CDK1/Cyclin B (Homo sapiens, UniProt P06493).
T1 construct: purchased Invitrogen PR4768C
Put plainly: Enzymatic assay for CDK1 (FRET based LANCE Ultra kinase assay). The assay is classed as biochemical. To be noted: read-out: CDK1 enzymatic activity (IC50 range). In outline: (§1)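 TR-FRET (LANCE Ultra) kinase assay at ATP Km, ULight-MBP peptide substrate (68 nM), 8-dose 4-fold compound series in DMSO. Enzymes: […]; 60 min at 23° C., stopped with EDTA plus Eu-anti-phospho-MBP antibody, read 665/615 nm after 60 min.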

The next assay concerns the target T2, CDK2/Cyclin A (Homo sapiens, UniProt P24941).
T2 construct: purchased Invitrogen PV6290
Put plainly: Enzymatic assay for CDK2 (FRET based LANCE Ultra kinase assay). To be noted: read-out: CDK2 enzymatic activity (IC50 range). It is filed as biochemical. In outline: as §1

The target of a further assay is T3, CDK5/p25 (Homo sapiens, UniProt Q00535).
T3 construct: purchased Invitrogen PR8543B
T3 sequence (Q00535 whole entry): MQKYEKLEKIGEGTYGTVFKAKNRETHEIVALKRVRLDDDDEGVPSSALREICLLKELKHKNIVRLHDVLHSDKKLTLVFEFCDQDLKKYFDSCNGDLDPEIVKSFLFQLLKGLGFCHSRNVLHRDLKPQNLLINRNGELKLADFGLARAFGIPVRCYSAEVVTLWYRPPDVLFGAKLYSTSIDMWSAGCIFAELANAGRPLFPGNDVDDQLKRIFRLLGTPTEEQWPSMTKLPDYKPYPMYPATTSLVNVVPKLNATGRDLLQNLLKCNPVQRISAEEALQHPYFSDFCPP
T3 sequence (Q15078 99-307 partner limits assumed): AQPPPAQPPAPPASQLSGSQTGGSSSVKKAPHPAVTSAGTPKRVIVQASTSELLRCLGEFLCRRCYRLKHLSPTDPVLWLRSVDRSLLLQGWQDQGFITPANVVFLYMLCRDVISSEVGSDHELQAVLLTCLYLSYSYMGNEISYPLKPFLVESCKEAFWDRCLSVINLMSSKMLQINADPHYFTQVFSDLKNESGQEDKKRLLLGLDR
In words: Enzymatic assay for CDK5 (FRET based LANCE Ultra kinase assay). It is filed as biochemical. To be noted: read-out: CDK5 enzymatic activity (IC50 range). In outline:
as §1

For the next assay, the target named is T4, CDK7/Cyclin H/MNAT1 (Homo sapiens, UniProt P50613).
T4 construct: purchased Invitrogen PR6749B
T4 sequence (P50613 whole entry): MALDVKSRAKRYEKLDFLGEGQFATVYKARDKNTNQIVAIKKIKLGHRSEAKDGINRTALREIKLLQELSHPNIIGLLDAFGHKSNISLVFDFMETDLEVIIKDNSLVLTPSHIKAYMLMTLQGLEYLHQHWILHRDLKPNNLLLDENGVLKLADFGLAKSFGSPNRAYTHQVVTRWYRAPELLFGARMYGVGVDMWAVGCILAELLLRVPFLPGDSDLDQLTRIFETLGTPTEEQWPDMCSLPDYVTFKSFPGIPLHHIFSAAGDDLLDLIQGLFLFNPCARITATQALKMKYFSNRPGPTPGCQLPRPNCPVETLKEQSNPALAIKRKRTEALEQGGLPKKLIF
T4 sequence (P51946 whole entry partner): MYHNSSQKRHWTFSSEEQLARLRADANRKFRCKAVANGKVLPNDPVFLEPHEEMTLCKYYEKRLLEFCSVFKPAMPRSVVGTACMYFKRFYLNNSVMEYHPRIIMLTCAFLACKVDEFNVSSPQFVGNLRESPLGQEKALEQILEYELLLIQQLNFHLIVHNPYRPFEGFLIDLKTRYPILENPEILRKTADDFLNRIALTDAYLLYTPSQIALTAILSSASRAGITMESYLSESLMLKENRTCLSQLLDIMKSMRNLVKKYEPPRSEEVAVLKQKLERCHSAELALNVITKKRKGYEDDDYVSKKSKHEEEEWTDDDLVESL
T4 sequence (P51948 whole entry partner): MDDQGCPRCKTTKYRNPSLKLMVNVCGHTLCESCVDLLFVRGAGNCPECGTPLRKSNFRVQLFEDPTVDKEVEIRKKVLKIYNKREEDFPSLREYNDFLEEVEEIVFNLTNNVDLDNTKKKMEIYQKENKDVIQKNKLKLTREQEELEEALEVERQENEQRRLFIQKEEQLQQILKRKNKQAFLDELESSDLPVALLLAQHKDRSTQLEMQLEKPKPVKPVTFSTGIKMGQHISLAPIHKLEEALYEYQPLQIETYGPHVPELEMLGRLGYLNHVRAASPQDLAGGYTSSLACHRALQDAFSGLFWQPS
Put plainly: Enzymatic assay for CDK7 (FRET based LANCE Ultra kinase assay). The assay is classed as biochemical. To be noted: for IC50: read-out: CDK7 enzymatic activity (IC50 range). A digest of the protocol: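 LANCE Ultra TR-FRET kinase assay using a ULight-labeled peptide substrate and a Eu-labeled anti-phospho antibody, with ATP at its Km. Purified CDK/cyclin complex was added to compound after brief centrifugation.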
On the technique in general: TR-FRET usually uses a lanthanide donor and a delayed reading to cut background.

A further assay relates to HCT116. In words: Cellular HCT116 viability assay (CellTiter-Glo, 72 hours). It is filed as cell-based. To be noted: Homo sapiens, HCT-116. In outline: (§2)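 Cells plated in 96 wells and exposed to compound 72 h at 37 °C, 5% CO2, final DMSO below 0.1%, DMSO control. Viability by CellTiter-Glo luminescence, duplicate.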
On the technique in general: Cellular ATP, detected with luciferase, serves as a proxy for viable cell number.

In a further assay the test system is H460. Put plainly: Cellular H460 viability assay (CellTiter-Glo, 72 hours). The assay is classed as cell-based. To be noted: Homo sapiens, NCI-H460. A digest of the protocol:
as §2

In the next assay the test system is MM.1S. Put plainly: Cellular MM.1S viability assay (CellTiter-Glo, 72 hours). To be noted: Homo sapiens, MM1.S. The assay is classed as cell-based. A digest of the protocol:
(§3)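 Cells seeded at 1×10^4/well (MM.1S), 5×10^3 (OVCAR-3) or 1×10^3 (A2780), grown in RPMI-1640 with 10% FBS. After 24 h, compound added at 0.0015–10 uM, final DMSO below 0.1%, for 72 h at 37° C. Viability read by CellTiter-Glo luminescence in duplicate, with curve fitting.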

In another assay the test system is MV4-11. Put plainly: Cellular MV4-11 viability assay (CellTiter-Glo, 72 hours). It is filed as cell-based. To be noted: Homo sapiens. A digest of the protocol:
as §2

Another assay relates to MOLT-4. Put plainly: Cellular MOLT-4 viability assay (CellTiter-Glo, 72 hours). To be noted: Homo sapiens, MOLT4 viability assay. It is filed as cell-based. A digest of the protocol:
as §2

For the next assay, the system named is RPMI-8226. Put plainly: Cellular RPMI-8226 viability assay (CellTiter-Glo, 72 hours). It is filed as cell-based. To be noted: Homo sapiens. In outline: as §2
The test system of the next assay is A2780. Put plainly: Cellular A2780 viability assay (CellTiter-Glo, 72 hours). To be noted: Homo sapiens. It is filed as cell-based. A digest of the protocol: as §3
A further assay relates to OVCAR-3. Put plainly: Cellular OVCAR-3 viability assay (CellTiter-Glo, 72 hours). The assay is classed as cell-based. To be noted: Homo sapiens. The text has this: Human T-cell acute lymphoblastic leukemia cell line, MOLT-4 (ATCC, Cat #CRL-1582), Human multiple myeloma cell line, RPMI-8226 (Invitrogen, Cat #22400-089) and MM.1S (ATCC, Cat #CRL-2974), NSCLC (Non-small cell lung cancer) cell line H460 (ATCC, Cat #HTB-177), Human colon colorectal carcinoma cell line HCT116 (ATCC, Cat #CCL-247), Human acute monocytic leukemia cell line MV4-11 (ATCC, Cat #CRL-9591), OVCAR-3 (ATCC, Cat #HTB-161) and A2780 (ECACC, Cat #93112519) were obtained from ATCC. Cells were grown in RPMI-1640 media (Invitrogen, Cat #22400-089) supplemented with 10% FBS (Invitrogen, Cat #10099141) and 1% penicillin/streptomycin (Invitrogen, Cat #15070063) and cultured at 37° C., 5% CO2 in a humidified chamber. All cell lines were routinely tested for mycoplasma.
The effect of the CDK7 inhibitor to inhibit the growth of target cancer cells was evaluated through the 72 hours time period of viability assay. Briefly, the candidate cell line ware plated in 96 well plate at the following density of cells respectively. 1×10^4 cells/well for MOLT-4, RPMI-8226, MV4-11 and MM.1S, 5×10^3 for H460, HCT116 and OVCAR-3 and IX 10^3 for A2780. After 24 hours, the cells were treated with various concentrations of the compound (ranging from 0.0015 uM to 10 uM). DMSO solvent without compound served as a control and final DMSO concentration less than 0.1%. After 72 hours of incubation at 37° C., 5% CO2 incubator, cells were analyzed for the viability using the CellTiter-Glo Luminescent Cell Viability Assay (Promega, Cat #G7570). All viability assays were performed in duplicate and Luminescence was read using an Envision (Perkin Elmer, USA). Data was analyzed using XLfit software.

T1 sequence (P06493 whole entry): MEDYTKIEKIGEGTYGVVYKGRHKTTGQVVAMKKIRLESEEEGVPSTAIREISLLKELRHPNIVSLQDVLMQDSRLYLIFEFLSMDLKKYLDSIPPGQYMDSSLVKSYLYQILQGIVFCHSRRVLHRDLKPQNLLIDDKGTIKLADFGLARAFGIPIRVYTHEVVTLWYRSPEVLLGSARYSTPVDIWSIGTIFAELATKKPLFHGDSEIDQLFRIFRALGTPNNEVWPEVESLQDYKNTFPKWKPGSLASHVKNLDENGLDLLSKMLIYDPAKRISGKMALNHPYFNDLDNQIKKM
T1 sequence (P14635 whole entry partner): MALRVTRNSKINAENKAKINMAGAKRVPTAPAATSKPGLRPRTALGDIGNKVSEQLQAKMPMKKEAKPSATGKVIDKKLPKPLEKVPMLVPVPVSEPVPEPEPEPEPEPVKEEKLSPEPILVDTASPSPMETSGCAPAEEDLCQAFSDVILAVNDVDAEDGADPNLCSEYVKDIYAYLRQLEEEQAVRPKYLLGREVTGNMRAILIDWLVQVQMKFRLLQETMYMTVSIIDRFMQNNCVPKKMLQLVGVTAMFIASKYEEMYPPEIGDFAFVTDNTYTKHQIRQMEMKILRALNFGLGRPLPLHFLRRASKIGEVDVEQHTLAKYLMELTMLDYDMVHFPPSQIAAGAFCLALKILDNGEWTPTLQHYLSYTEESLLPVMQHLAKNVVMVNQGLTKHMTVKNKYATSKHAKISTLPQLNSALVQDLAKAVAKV

In the case of `CC(C)c1cnn2c(NCc3ccccc3-c3ccc4ccccc4n3)nc(N3CCC(N)CC3)nc12` [Compound 48], the IC50 at CDK1/Cyclin B was > 1000 nM; at CDK2/Cyclin A, > 1000 nM; at CDK5/p25 it was 100 to 1000 nM; at CDK7/Cyclin H/MNAT1, < 100 nM; in the assay on HCT116 it was < 1000 nM; in the assay on H460 it was < 1000 nM. For the same compound, the IC50 was ≤ 1000 nM in the assay with MM.1S; < 1000 nM in the assay on MV4-11; 1000 to 10000 nM in the assay with MOLT-4; < 1000 nM in the assay on RPMI-8226; ≤ 1000 nM with A2780; 1000 to 10000 nM with OVCAR-3. The “CDK1/CDK7: Selectivity of CDK7 inhibition over CDK1 inhibition” value at CDK7/Cyclin H/MNAT1 was “A (A=greater than 200 fold)”. Also, the “CDK2/CDK7: Selectivity of CDK7 inhibition over CDK2 inhibition” value at CDK7/Cyclin H/MNAT1 is “A (A=greater than 200 fold)”. Moreover, the “CDK5/CDK7: Selectivity of CDK7 inhibition over CDK5 inhibition” value on CDK7/Cyclin H/MNAT1 is “B (B=less than 200 fold, but greater than 20 fold)”.

Take `CC(C)c1cnn2c(NCc3c(Cl)cccc3-c3ccc4ccccc4n3)nc(N3CCC(N)CC3)nc12` [Compound 194]: the 50% inhibitory concentration (IC50) at CDK1/Cyclin B was > 1000 nM; on CDK2/Cyclin A it was > 1000 nM; at CDK5/p25 it was > 1000 nM; on CDK7/Cyclin H/MNAT1, < 100 nM; with HCT116, < 1000 nM; in the assay on H460, < 1000 nM. The half-inhibitory concentration (IC50) was ≤ 1000 nM in the assay on MM.1S, < 1000 nM in the assay on MV4-11, ≤ 1000 nM in the assay on A2780 and 1000 to 10000 nM in the assay on OVCAR-3. For the same compound, the “CDK1/CDK7: Selectivity of CDK7 inhibition over CDK1 inhibition” value at CDK7/Cyclin H/MNAT1 is “A (A=greater than 200 fold)”. The “CDK2/CDK7: Selectivity of CDK7 inhibition over CDK2 inhibition” value on CDK7/Cyclin H/MNAT1 is “A (A=greater than 200 fold)”. Also, on CDK7/Cyclin H/MNAT1, the “CDK5/CDK7: Selectivity of CDK7 inhibition over CDK5 inhibition” value is on record as “A (A=greater than 200 fold)”.

As for `CC(C)c1cnn2c(NCc3c(Cl)cccc3-c3cc4ccccc4[nH]3)nc(N3CCC(N)CC3)nc12` [Compound 182], the half-maximal inhibitory concentration (IC50) on CDK1/Cyclin B was > 1000 nM; on CDK2/Cyclin A, > 1000 nM; at CDK5/p25, > 1000 nM; on CDK7/Cyclin H/MNAT1, < 100 nM; in the assay on HCT116 it was < 1000 nM; in the assay on H460, < 1000 nM. In addition, the IC50 in the assay on MM.1S is ≤ 1000 nM; in the assay on MV4-11, < 1000 nM; with RPMI-8226 it was < 1000 nM; in the assay with A2780, ≤ 1000 nM; with OVCAR-3, 1000 to 10000 nM. The “CDK1/CDK7: Selectivity of CDK7 inhibition over CDK1 inhibition” value on CDK7/Cyclin H/MNAT1 is “A (A=greater than 200 fold)”. On CDK7/Cyclin H/MNAT1, the “CDK2/CDK7: Selectivity of CDK7 inhibition over CDK2 inhibition” value was “A (A=greater than 200 fold)”. Further, on CDK7/Cyclin H/MNAT1, the “CDK5/CDK7: Selectivity of CDK7 inhibition over CDK5 inhibition” value is reported as “A (A=greater than 200 fold)”.

Take `CC(C)c1cnn2c(NCc3ccccc3-n3cccn3)nc(-c3cccc(OC4CCNC4)c3)nc12` (racemic) [Compound 163]: the half-inhibitory concentration (IC50) is > 1000 nM at CDK1/Cyclin B; 100 to 1000 nM at CDK2/Cyclin A; 100 to 1000 nM at CDK5/p25; < 100 nM at CDK7/Cyclin H/MNAT1; < 1000 nM with H460; ≤ 1000 nM in the assay with MM.1S. In addition, the half-inhibitory concentration (IC50) was < 1000 nM with MV4-11, ≤ 1000 nM with A2780 and 1000 to 10000 nM in the assay on OVCAR-3. For the same compound, the “CDK1/CDK7: Selectivity of CDK7 inhibition over CDK1 inhibition” value at CDK7/Cyclin H/MNAT1 was “A (A=greater than 200 fold)”. Besides, the “CDK2/CDK7: Selectivity of CDK7 inhibition over CDK2 inhibition” value at CDK7/Cyclin H/MNAT1 is “B (B=less than 200 fold, but greater than 20 fold)”. For the same compound, the “CDK5/CDK7: Selectivity of CDK7 inhibition over CDK5 inhibition” value at CDK7/Cyclin H/MNAT1 is “B (B=less than 200 fold, but greater than 20 fold)”.

As for `CC(C)c1cnn2c(N[C@@H](C)c3ccccc3-n3cc4ccccc4n3)nc(N3CCC(N)CC3)nc12` [Compound 183], the IC50 was > 1000 nM on CDK1/Cyclin B; > 1000 nM at CDK2/Cyclin A; > 1000 nM on CDK5/p25; < 100 nM at CDK7/Cyclin H/MNAT1; < 1000 nM with HCT116; < 1000 nM in the assay on H460. For the same compound, the IC50 was ≤ 1000 nM in the assay with MM.1S, < 1000 nM in the assay with MV4-11, ≤ 1000 nM in the assay on A2780 and 1000 to 10000 nM with OVCAR-3. Further, at CDK7/Cyclin H/MNAT1, the “CDK1/CDK7: Selectivity of CDK7 inhibition over CDK1 inhibition” value was “A (A=greater than 200 fold)”. In addition, the “CDK2/CDK7: Selectivity of CDK7 inhibition over CDK2 inhibition” value on CDK7/Cyclin H/MNAT1 is “A (A=greater than 200 fold)”. Further, the “CDK5/CDK7: Selectivity of CDK7 inhibition over CDK5 inhibition” value at CDK7/Cyclin H/MNAT1 was “A (A=greater than 200 fold)”.
